This passage reports IC50 results from ChEMBL document CHEMBL4052744, “Diverse heterocyclic scaffolds as dCTP pyrophosphatase 1 inhibitors. Part 1: Triazoles, triazolopyrimidines, triazinoindoles, quinoline hydrazones and arylpiperazines” (Bioorg Med Chem Lett, 2017).

This test has as its target T1, dCTP pyrophosphatase 1 (Homo sapiens, UniProt Q9H773).
T1 sequence (Q9H773 whole entry): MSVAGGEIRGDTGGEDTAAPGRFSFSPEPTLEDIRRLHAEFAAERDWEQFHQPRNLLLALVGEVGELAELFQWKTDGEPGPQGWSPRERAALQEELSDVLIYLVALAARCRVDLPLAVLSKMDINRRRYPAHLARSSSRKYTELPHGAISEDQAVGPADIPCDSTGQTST
The test is described as follows: Inhibition of human dCTPase 1.
Consider `CCc1c(C)nc(N2CCN(c3ccc(OC)cc3)CC2)nc1O`, for which half-maximal inhibition (IC50) required 1100 nM.

For the molecule `CCn1c2ccccc2c2nnc(SCCN3CCCCC3)nc21`, the IC50 (usually the concentration needed to halve the response being measured) is 940 nM.

`CCOc1ccc(C(=O)N2CCN(c3cnn(-c4ccccc4)c(=O)c3Cl)CC2)cc1` had an IC50 of 1200 nM.

In turn, `CS(=O)(=O)N1CCN(c2cnn(-c3ccccc3)c(=O)c2Cl)CC1` registered an IC50 of 3200 nM.

For the molecule `CCc1c(C)nc(N2CCN(c3cccc(OC)c3)CC2)nc1O`, the IC50 amounted to 1400 nM.

As for `COc1ccc2c(c1)c1nnc(SCCN3CCOCC3)nc1n2C`, the midpoint of inhibition, the IC50, lay at 550 nM.

`O=C(c1ccco1)N1CCN(c2nc3ccccc3n3cnnc23)CC1` displayed a concentration for half-maximal inhibition (IC50) of 980 nM.

For `COc1ccccc1C(=O)N1CCN(c2cnn(-c3ccccc3)c(=O)c2Cl)CC1`, the IC50 is 660 nM.

The molecule `Cn1c2ccccc2c2nnc(SCCN3CCCCC3)nc21` displayed an IC50 of 1910 nM.

Molecule `O=C(c1ccccc1Cl)N1CCN(c2ccc([N+](=O)[O-])c(NC3CC3)c2)CC1` showed an IC50 of 1100 nM.

`CC(C)(C)c1cc(=O)[nH]c(N2CCN(Cc3ccc4c(c3)OCO4)CC2)n1` yielded an IC50 of 1100 nM.

Regarding `CCNc1cc(N2CCN(C(=O)c3ccccc3C)CC2)ccc1[N+](=O)[O-]`, the half-maximal inhibitory concentration (IC50) turned out to be 810 nM.

Regarding `CCNc1cc(N2CCN(C(=O)c3ccc(OC)cc3)CC2)ccc1[N+](=O)[O-]`, the IC50 was determined as 1500 nM. This IC50 lies about 1.9-fold higher than the previous one.

As for `CCNc1cc(N2CCN(C(=O)c3ccc(CC)cc3)CC2)ccc1[N+](=O)[O-]`, the 50% inhibitory concentration (IC50) was 910 nM. This IC50 is about 1.6-fold lower than that of the molecule before.
